{"source": "patent US20250146080A1", "about": "“METHODS FOR OVERCOMING TAZEMETOSTAT-RESISTANCE IN CANCER PATIENTS” (MEMORIAL SLOAN-KETTERING CANCER CENTER, priority 2022, published 2025)", "key": {"RB1^del G401 cells [1]": {"tested_on": "RB1^del G401 cells", "experiment": "Cell viability (CellTiter-Glo), G401 RB1^del clones E1 and F2", "type": "cell-based", "conditions": "for EC50: Homo sapiens, G-401, 144 h, barasertib for 6 days, read-out: half-maximal effective concentration; for overcoming TAZ resistance in RB1^del G401 cells: seleciclib, alisertib 9 days, barasertib 6 days", "experimental": "G401 cells with RB1 mutations were engineered by Synthego. […] Ribonucleprotein containing spCas9 and sgRNA was transfected into G401 cells by electroporation. […] The cells were then single-cell cloned and re-verified by Sanger sequencing.\nDrug and media were replaced on Days 4, 7, and 11. […] CellTiter-Glo reagent was freshly reconstituted on the day of measurement and added in a 1:1 proportion to cell media. […] Cell line doubling time was determined by measuring cell viability every 24 hours over the course of 4 days, and fitting the cell viability to a two-parameter exponential curve. […] After the addition of cells, drugs were added using a pin tool (stainless steel pins with 50 nL slots, V&P Scientific) mounted onto a liquid handling robot (CyBio Well vario, Analytik Jena). For analysis of synergy, we used the synergyFinder package (2). Outliers due to pinning errors were excluded after manual examination."}, "RB1^WT G401 cells [2]": {"tested_on": "RB1^WT G401 cells", "experiment": "Cell viability (CellTiter-Glo) dose response, G401 RB1^WT", "type": "cell-based", "conditions": "Homo sapiens, G-401, 144 h, barasertib for 6 days, read-out: half-maximal effective concentration", "experimental": "(§1) Drug and media were replaced on Days 4, 7, and 11. CellTiter-Glo assays were performed on Day 14, with luminescence readings taken using an automated fluorescence plate reader (Tecan). CellTiter-Glo reagent was freshly reconstituted on the day of measurement and added in a 1:1 proportion to cell media. […] Cell line doubling time was determined by measuring cell viability every 24 hours over the course of 4 days, and fitting the cell viability to a two-parameter exponential curve. […] After the addition of cells, drugs were added using a pin tool (stainless steel pins with 50 nL slots, V&P Scientific) mounted onto a liquid handling robot (CyBio Well vario, Analytik Jena). For analysis of synergy, we used the synergyFinder package (2). Outliers due to pinning errors were excluded after manual examination."}, "[3]": {"tested_on": "EZH2^Y666N expressing G401 rhabdoid tumor cells", "experiment": "Cell viability (CellTiter-Glo), G401 clones expressing doxycycline-inducible EZH2^Y666N", "type": "cell-based", "conditions": "10 μM drug, 14 days", "experimental": "as §1"}, "CHK1": {"biological_target": "T1, CHK1 (Homo sapiens, UniProt O14757)", "T1 construct": "endogenous in cells; host or cells: G401 rhabdoid tumor cells", "T1 sequence (O14757 1-476)": "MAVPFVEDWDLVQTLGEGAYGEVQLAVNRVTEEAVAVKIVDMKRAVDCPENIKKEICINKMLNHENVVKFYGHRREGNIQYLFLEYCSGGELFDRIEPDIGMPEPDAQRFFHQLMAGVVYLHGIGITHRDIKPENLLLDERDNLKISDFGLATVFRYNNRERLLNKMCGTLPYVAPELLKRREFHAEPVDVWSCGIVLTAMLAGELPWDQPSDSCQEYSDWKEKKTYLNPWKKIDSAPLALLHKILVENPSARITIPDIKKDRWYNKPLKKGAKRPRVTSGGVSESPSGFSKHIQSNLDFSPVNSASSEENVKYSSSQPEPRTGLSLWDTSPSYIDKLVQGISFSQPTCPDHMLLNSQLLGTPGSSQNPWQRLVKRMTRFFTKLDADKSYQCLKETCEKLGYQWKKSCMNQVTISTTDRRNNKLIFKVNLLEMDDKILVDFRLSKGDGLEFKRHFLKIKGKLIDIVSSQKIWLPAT", "experiment": "Western blot of CHK1 autophosphorylation at S296", "type": "cell-based", "conditions": "SRA737 3 μM, 2 days", "experimental": "To assess protein expression by Western immunoblotting, pellets of 1 million cells were prepared and washed once in cold PBS. Cells were resuspended in 100-130 μL of RIPA lysis buffer (50 mM Tris-HCl, pH 8.0, 150 mM NaCl, 1.0% NP-40, 0.5% sodium deoxycholate, 0.1% sodium dodecyl sulfate) and incubated on ice for 10 minutes. Cell suspensions were then disrupted using a Covaris S220 adaptive focused sonicator for 5 minutes (peak incident power: 35W, duty factor: 10%, 200 cycles/burst) at 4° C. Lysates were cleared by centrifugation at 18,000 g for 15 min at 4° C. Protein concentration was assayed using the DC Protein Assay (Bio-Rad) and 15-35 μg whole cell extract was used per sample. Samples were boiled at 95° C. in Laemmli buffer (Bio-Rad) with 40 mM DTT and resolved using sodium dodecyl sulfate-polyacrylamide gel electrophoresis. Proteins were transferred to Immobilon FL PVDF membranes (Millipore), and membranes were blocked using Intercept Blocking buffer (Li-Cor). […] Blotted membranes were visualized using goat secondary antibodies conjugated to IRDye 680RD or IRDye 800CW (Li-Cor, 926-68071 and 926-32210) at 1:15,000 and the Odyssey CLx fluorescence scanner, according to manufacturer's instructions (Li-Cor). […]"}, "G401 cells": {"tested_on": "G401 cells", "conditions": "single drug, 7 days; DMSO 0.061", "quoted_text": "Immunofluorescence for γH2AX was performed on cells plated on Millicell EZ Slide glass slides (EMD Millipore), coated for 45 minutes with bovine plasma fibronectin (Millipore Sigma). After drug treatment, cells were washed once with PBS and fixed in 4% formaldehyde for 10 minutes at room temperature. Slides were then washed three times in PBS for 5 minutes, permeabilized for 15 minutes in 0.3% Triton X-100, washed again in PBS three times, and blocked with 5% goat serum (Millipore Sigma, G9023) in PBS for 1 hour at room temperature. Slides were incubated with mouse anti-γH2A.X primary antibody (Sigma-Aldrich, 05-636) at 1:500 in blocking buffer for 1 hour, washed three times in PBS, and incubated with goat anti-mouse secondary antibody conjugated to AlexaFluor555 (Invitrogen, A-21422) at 1:1,000. Cells were then counterstained with DAPI at 1:1,000 for 10 minutes and treated with ProLong Diamond Antifade Mountant with DAPI (Invitrogen, P36962) for 48 hours.\nImages were acquired on a Leica SP5 confocal microscope in the upright configuration at 63× magnification. Images were then processed using a custom pipeline in CellProfiler (6). Per-cell integrated γH2A.X intensity was normalized against per-cell integrated DAPI intensity."}, "RB1^del G401 cells [4]": {"tested_on": "RB1^del G401 cells", "experiment": "Flow cytometry cell cycle analysis (EdU/propidium iodide), G401 RB1^del clones", "type": "cell-based", "conditions": "1 μM TAZ, 11 days", "experimental": "(§2) On Day 11, cells were pulsed with EdU for 1 hour. Cells were then harvested and processed for flow cytometry using the manufacturer's protocol (Click-iT, Invitrogen). Briefly, cells were washed with PBS with 1% BSA, permeabilized, and incubated with AlexaFluor647 for 30 minutes. DNA content was measured using propidium iodide (0.05 μg/μL). Cells were analyzed on a CytoFLEX LX (Beckman Coulter)."}, "RB1^WT G401 cells [5]": {"tested_on": "RB1^WT G401 cells", "experiment": "Flow cytometry cell cycle analysis (EdU/propidium iodide), G401 RB1^WT", "type": "cell-based", "conditions": "1 μM TAZ, 11 days", "experimental": "as §2"}, "MRT and ES cell lines": {"tested_on": "MRT and ES cell lines", "experiment": "TAZ dose-response curves in a panel of MRT and ES cell lines", "type": "cell-based", "conditions": "13 days, AUC integrated from 40 nM to 50 μM", "experimental": "as §1"}}, "note": "Where two headings read alike, the source gives them in different places."}
{"compound": "CCN(CCCOc1ccc2c(Nc3cc(CC(=O)Nc4cccc(F)c4)n[nH]3)ncnc2c1)CCOP(=O)(O)O", "note": "[barasertib]", "values": [{"measurement": "EC50", "setting": "RB1^del G401 cells [1]; G401 RB1^del E1 clone", "result": "5.5 ± 0.6", "unit": "nM"}, {"measurement": "EC50", "setting": "RB1^del G401 cells [1]; G401 RB1^del F2 clone", "result": "5.9 ± 0.9", "unit": "nM"}, {"measurement": "EC50", "setting": "RB1^WT G401 cells [2]", "result": "6.5 ± 0.5", "unit": "nM"}]}
{"compound": "Cc1ncccc1-c1cnc(NCc2c(F)ccc3c2CCO3)n2cnnc12", "note": "[MAK683]", "values": [{"measurement": "cell viability of EZH2^Y666N clones versus wild-type EZH2", "setting": "[3]", "result": "overcomes EZH2^Y666N-mediated resistance"}]}
{"compound": "N#Cc1cnc(Nc2cc(NC[C@H]3CNCCO3)c(C(F)(F)F)cn2)cn1", "note": "[SRA737]", "values": [{"measurement": "CHK1 auto-phosphorylation", "setting": "CHK1", "result": "effective suppression"}]}
{"compound": "CCN(c1cc(-c2ccc(CN3CCOCC3)cc2)cc(C(=O)NCc2c(C)cc(C)[nH]c2=O)c1C)C1CCOCC1", "note": "[TAZ, Tazemetostat]", "values": [{"measurement": "nuclear γH2AX fluorescence, median normalized level", "setting": "G401 cells", "result": 0.12}, {"measurement": "proportion of cells in G1 phase upon TAZ treatment", "setting": "RB1^del G401 cells [4]; RB1^del E1 clone", "result": 31, "unit": "%"}, {"measurement": "proportion of cells in G1 phase upon TAZ treatment", "setting": "RB1^del G401 cells [4]; RB1^del F2 clone", "result": 28, "unit": "%"}, {"measurement": "proportion of cells in G1 phase upon TAZ treatment", "setting": "RB1^WT G401 cells [5]", "result": 50, "unit": "%"}, {"measurement": "area under the curve (AUC) of TAZ dose responses", "setting": "MRT and ES cell lines; resistant ES1, VAESBJ, ES2, EPI544, MP-MRT-AN cell lines", "result": "≤ 0.3"}, {"measurement": "area under the curve (AUC) of TAZ dose responses", "setting": "MRT and ES cell lines; sensitive G401, KP-MRT-NS, TTC642, A204, TM8716, KP-MRT-RY cell lines", "result": "> 0.3"}]}
{"compound": "CC[C@H](CO)Nc1nc(NCc2ccccc2)c2ncn(C(C)C)c2n1", "note": "[seleciclib]", "values": [{"measurement": "overcoming TAZ resistance in RB1^del G401 cells", "setting": "RB1^del G401 cells [1]", "result": "able to overcome TAZ resistance"}]}
{"compound": "COc1cc(Nc2ncc3c(n2)-c2ccc(Cl)cc2C(c2c(F)cccc2OC)=NC3)ccc1C(=O)O", "note": "[alisertib]", "values": [{"measurement": "overcoming TAZ resistance in RB1^del G401 cells", "setting": "RB1^del G401 cells [1]", "result": "able to overcome TAZ resistance"}]}
{"compound": "Cc1cc(C)c(CNC(=O)c2cc(Cl)c3c(c2C)O[C@@](C)([C@H]2CC[C@H](N(C)C)CC2)O3)c(=O)[nH]1", "note": "[valemetostat]", "values": [{"measurement": "cell viability of EZH2^Y666N clones versus wild-type EZH2", "setting": "[3]", "result": "confers resistance"}]}
